Reference: patent publication US7091182B2, “Method for assisting in differential diagnosis and treatment of autistic syndromes” (Repligen Corporation, priority 1997, dated 2006)
Entries after “also recorded” stand apart in the source; their conditions may differ.

Experiments:
[1] = system: ovariectomized, estrogen-primed rats; details: cited from earlier work
[2] = system: children without behavioral abnormalities; adults; experiment: Secretin stimulatory response (pancreatic juice output) in non-autistic children and adults; assay type: in vivo, human
Protocol: The time required to collect basal duodenal fluid samples (1–2 ml) prior to secretin administration was 2–5 minutes, which was similar to that of non-autistic controls. […] Published adult responses using duodenal intubation and extended periods of specimen collection vary between 1.5 and 4.9 ml/min^56,57. Six out of 7 autistic patients who had chronic loose stools had pancreatico-biliary secretion rates above 5 ml/min (FIG. 4). […] The highest rate of secretion was 10 ml/min in one child.

[3] = system: children with autistic behavior; experiment: Behavioral evaluation after secretin administration; assay type: in vivo, human
Description: Prior to the secretion administration, each child underwent developmental/psychological evaluation. […] In addition, most underwent a structured evaluation including assessment of intelligence, language ability, adaptive function [Vineland Adaptive Behavior Scales]^53 and behavioral rating scales [Child Behavior Checklist]^54. A more specific measure directly related to autism, the Childhood Autism Rating Scale [CARS]^55, was also used.
The most recent 8 cases had developmental/psychological evaluations at the University of Maryland or at the Kennedy Krieger Institute prior to the secretin administration.
The number and type of evaluation techniques that were employed increased across subjects as did the degree of sophistication of the professional staff involved in the design and conduct of the evaluation approaches. Specifically, data on the first seven subjects consisted of brief clinical observations, parental report, analysis of videotapes, and reports of evaluations by professionals who had conducted routine assessments not specifically dictated by our research protocol. Whereas, data on the second eight subjects studied consisted of the same methods described above, as well as with the addition of direct observation of behavior employing a standard functional analysis of structured videotape samples (analyzed in random order by blind raters); standard assessments including Communication and Symbolic Behavior Scales (CSBS), Pre-School Language Scales—3 (PSLS), Bayley Scales of Infant Development: Second Edition, Vineland Adaptive Behavior Scales, Childhood Autism Rating Scale (CARS), and Behavior Observation System (BOS). Further, the evaluation team for the least eight subjects involved professionals from the areas of neuropsychology, behavioral psychology and developmental pediatrics from both the University of Maryland School of Medicine and the Kennedy Krieger Institute/Johns Hopkins University School of Medicine.

[4] = system: children with autistic behavior; experiment: Stool consistency / gastrointestinal symptoms after endoscopy and secretin injection; assay type: in vivo, human
Description: The specific procedures were as follows.

[5] = system: children with autistic behavior; experiment: Pancreatic stimulation with secretin during upper gastrointestinal endoscopy, collection of pancreatico-biliary fluid; assay type: in vivo, human
Protocol: After fasting from midnight, upper gastrointestinal endoscopies were carried out the next morning under general anesthesia. All gastric juice was aspirated before passing the endoscope into the duodenum. The pancreatico-biliary juice was collected after positioning the endoscope distal to the ampulla of Vater. An ERCP catheter was placed into the channel of endoscope and the fluid was collected by moving the tip into the outcoming fluid and suctioning it into a syringe. The pancreas was then stimulated with secretin 2 IU/kg BW (Ferring Laboratories, Inc. Suffern, NY, USA) given intravenously within a minute. Three additional specimens were collected after the secretin injection within a 10-minute period. Blood samples were collected prior to and 10 minutes after secretin stimulation. In a subgroup of children, the effect of duodenal acidification was determined by measurement of blood secretin levels before and 4–5 minutes after washing the second part of the duodenum with 0.05M hydrochloric acid for 5 minutes. At the end of the procedure, biopsies were obtained of the small intestine, esophagus and stomach.
The volume of secreted fluid was calculated as ml/min and the aspirated juice analyzed for pH, protein (mg/ml; Bio-Rad protein assay), and for enzymes (amylase, trypsin, lipase, chymotrypsin, and carboxypeptidase A and B). These enzyme assays were modified by us and run regularly in our certified Clinical Laboratory. An aliquot of collected fluid was sent for bacterial and fungal culture. Intestinal biopsy specimens were homogenized in ice-cold distilled water and the activities of lactase, maltase, sucrase, palatinase and glucoamylase were measured using the Dahlquist intestinal disaccharidases assay [Dahlquist, Anal. Biochem. 22:99–107 (1968); Azad M, Pediatr Res, 1990;28: 166–170 (1990)]. The normal values were established based on measurements of histological normal intestinal biopsy tissues (n=104) at the University of Maryland. In our practice, digestive enzyme activities below the established 3d percentile values are considered abnormal.

secretin
circadian rise of LH secretion [1]: strikingly effective in increasing | average stimulatory response for secretin ([2]; children 3–7 years of age, own data, same endoscopic collection technique): 1 to 2 mL/min | typical pancreatic juice output ([2]; children without behavioral abnormalities, ages 1 to 6): 1 to 2 mL/min | latest behavioral evaluation (diagnosis) ([3]; Case 1): changed from a low functioning autistic child to a social, non-autistic, speech delayed child; also recorded: changed from a low functioning autistic child to a social, non-autistic, speech-delayed child | changes in autistic behavior ([3]; Case 1, after first secretin dose): dramatic improvement in eye contact, alertness, expressive language and fine motor skills; also recorded: improvements in eye contact, alertness, expressive language, and fine motor skills | language and cognitive functions ([3]; Case 1, second single secretin infusion eight months later): further improvement in their language and cognitive functions | cognitive skills ([3]; Case 2, five weeks following a single dosage): progressive improvement in cognitive skills; also recorded: improved over a five weeks period | social behavior and language ([3]; Case 2, second dose 3 months later): further improvement in their social behavior and language | language and communication skills ([3]; Case 3, second infusion 3 months later): accelerated their improvement | language, social, and communication skills ([3]; Case 3, three weeks and two months after the procedure): significant improvements in language, social, and communication skills; also recorded: improved significantly | Progress after Secretin administration: eye contact ([3]; Case #1, within two months, % of the time, before: Minimal eye contact): Eye contact 75% of the time | Progress after Secretin administration: bowel movements ([3]; Case #1, within two months, before: Abnormal bowel movements): Normal bowel movements | Progress after Secretin administration: sleeping ([3]; Case #1, within two months, before: Consistent sleeping problems): Has slept through almost every night entirely | Progress after Secretin administration: potty training ([3]; Case #1, within two months, before: Diapers only): Completely potty trained | Progress after Secretin administration: imitating commands ([3]; Case #1, within two months, before: Did not imitate commands): Will imitate almost any multi-step command | Progress after Secretin administration: water consumption ([3]; Case #1, within two months, before: Excessive water consumption): Excessive water consumption - no change | Progress after Secretin administration: spinning episodes ([3]; Case #1, within two months, before: Infrequent (1–2 times/week)): No spinning episodes | Progress after Secretin administration: diet preferences ([3]; Case #1, within two months, before: Limited diet preferences): No change | Progress after Secretin administration: connections between language and objects ([3]; Case #1, within two months, before: No apparent connections): Many connections made between new language learned and objects. Recites | Progress after Secretin administration: flash cards ([3]; Case #1, within two months, before: No flash cards): 40–50 Flash cards | Progress after Secretin administration: focus on requested tasks ([3]; Case #1, within two months, before: No focus on requested tasks): Will sit and watch carefully. Will perform most tasks after watching once or | Progress after Secretin administration: interest in drawing ([3]; Case #1, within two months, before: No interest in drawing): Wants to draw constantly. Will draw complete face and name the parts as he | Progress after Secretin administration: response to request for gestures ([3]; Case #1, within two months, before: No response): Responds to all kinds of requests and spontaneously says these things themself. | Progress after Secretin administration: sentences ([3]; Case #1, within two months, before: No sentences): Short sentences, such as “I love you”, “I want juice”, “Good night mammy” | Progress after Secretin administration: words ([3]; Case #1, within two months, before: Two words): 100's of words - will repeat some aproximation at any word requested | Progress after Secretin administration: videos ([3]; Case #1, within two months, before: Watch videos): Now gets “involved” interactively with their videos. They will imitate the hand | autistic symptoms and cognitive, language, and social skills, share of responders ([3]; all children who received secretin): more than half of the children | Changes after Secretin: Activity level ([3]; case #2, time 1 week): Very energetic but has very good focus during | Changes after Secretin: Appetite ([3]; case #2, time 1 week): Eating more foods: 2–3 large meals per day: | Changes after Secretin: Movements ([3]; case #2, time 1 week): A decrease in most abnormal movements but | Changes after Secretin: Social interaction ([3]; case #2, time 1 week): Hugging therapists; better eye contact, | Changes after Secretin: Correct responses to drills ([3]; case #2, time 1 week, before: 50% correct responses): 75–80% correct responses | Changes after Secretin: Bowel movements ([3]; case #2, time 2–3 days): At first constipated for 2–3 days. then normal | Changes after Secretin: Receptive language, commands understood ([3]; case #2, time 3 weeks, before: 20–30% of commands): understands where they are going: understands 75% | Changes after Secretin: Fine motor ([3]; case #2, time 4 weeks): Putting together Legos: turns key in door; turns | Changes after Secretin: Gross motor ([3]; case #2, time 4 weeks): Starts to hang on monkey bars: goes down fire | Changes after Secretin: Sleep ([3]; case #2, time 1 day, before: 7–8 hours): 10–12 hours per night uninterrupted every night | Changes after Secretin: Alertness, concentration ([3]; case #2, time 2 days): Extremely alert: looking therapist directly in | Changes: Activity level ([3]; case #3): Less hyperactive. More settled. More attentive and | Changes: Alertness, concentration ([3]; case #3): Chewing clothing, hands, and licking have stopped. | Changes: Appetite ([3]; case #3): Normal diet seems to satisfy them more. No longer | Changes: Cognitive ([3]; case #3): Actions are more purposeful. Playing sequencing, | Changes: Eye contact ([3]; case #3): More eye contact. Seeks out attention and once | Changes: Fine motor skills ([3]; case #3): Now uses fork and spoon much more readily and | Changes: Sleep ([3]; case #3): Now goes to bed willing and happily. Takes great | Changes: Social interaction ([3]; case #3): Now has a friend at school. They participate actively in | Changes: Correct responses to drills/commands ([3]; case #3, before: 50% correct responses): Rarely guessing. Very tuned in. Perhaps 80% correct | Changes: Bowel movements ([3]; case #3, before: Loose stools or diarrhea): Normal bowel movement since week three | Changes: Receptive language ([3]; case #3, before: understood 50% of commands): Understands almost everything. Understands two-step | increase in the scores on the Vineland Scale of Adaptive Behavior ([3]; case three, immediately after secretin administration): 22% | delayed reaction reported by the parents ([3]; case three, one-to-two months later): improved eye contact, increased focus on tasks, as well as improvements in language | language skills ([3]; case two, after the secretin injection): significant improvement in language skills | Vineland Scale of Adaptive Behaviors ([3]; child SG): increase in all five areas tested | increase in the CSBS ([3]; child SG): 25% | increases in language skills ([3]; child SG): six-to-nine month | increase in language skills measured by the PSLS (equivalent in development) ([3]; child WB): five months to one year | increase on the Bayley Scale of Development ([3]; child WB): 11 point | increase on the CSBS scale ([3]; child WB, within four months): 37% | autistic symptoms ([3]; each of the three cases): produced relief from autistic symptoms | cognitive, social, language, and age appropriate skills ([3]; first seven subjects, parental report and non-protocol evaluations): dramatic changes in cognitive, social, language, and age appropriate skills were reported for four of the first seven subjects | decrease of activity level measured by actometers ([3]; subject one): 50% | increase on the BOS ([3]; subject one): 22% | chronic diarrhea ([4]; Case 1, within three weeks after the procedure): their chronic diarrhea resolved; also recorded: His chronic diarrhea resolved | chronic diarrhea ([4]; Case 3): His chronic diarrhea resolved | duration of stool improvement ([4]; seven children with chronic loose stools): In five children this improvement was permanent | consistency of stools ([4]; seven children with chronic loose stools, after endoscopy and secretin injection): all of them had an improvement in the consistency of stools | pancreatic secretory response ([5]; Case 1, after 2 IU/kg BW of secretin): 10 mL/min | secretory response after secretin administration ([5]; Case 2, 2 IU/kg body weight of secretin): 7.5 mL/min | pancreato-biliary response to secretin, output ([5]; Case 3): 8 mL/min | Pancreatic secretion ([5]; Group I (chronic loose stools/diarrhea)): Increased (>5 ml/min) | Pancreatic secretion ([5]; Group II (no diarrhea)): Normal (<4 ml/min) | pancreato-biliary secretory response compared to non-autistic patients ([5]; all children, after secretin injection): extensive pancreato-biliary secretory response | highest rate of secretion ([5]; in one child): 10 mL/min | pancreatico-biliary secretion rates ([5]; six out of 7 autistic patients who had chronic loose stools): above 5 ml/min
